Experimental data taken from ChEMBL document CHEMBL6096690, “Synthesis and Biological Evaluation of Peripheral HTR2A Antagonists for Colorectal Cancer” (J Med Chem, 2025).

Key:
[1] = biological target: 5-hydroxytryptamine receptor 2A (Homo sapiens, UniProt P28223); experiment: Antagonist activity at 5HTR2A (unknown origin) assessed as inhibition of 5-HTR2A
hERG (KCNH2) = hERG (KCNH2) (Homo sapiens, UniProt Q12809); experiment: Inhibition of hERG at 10 uM relative to control; format: toxicity
hERG (KCNH2), sequence (Q12809 whole entry): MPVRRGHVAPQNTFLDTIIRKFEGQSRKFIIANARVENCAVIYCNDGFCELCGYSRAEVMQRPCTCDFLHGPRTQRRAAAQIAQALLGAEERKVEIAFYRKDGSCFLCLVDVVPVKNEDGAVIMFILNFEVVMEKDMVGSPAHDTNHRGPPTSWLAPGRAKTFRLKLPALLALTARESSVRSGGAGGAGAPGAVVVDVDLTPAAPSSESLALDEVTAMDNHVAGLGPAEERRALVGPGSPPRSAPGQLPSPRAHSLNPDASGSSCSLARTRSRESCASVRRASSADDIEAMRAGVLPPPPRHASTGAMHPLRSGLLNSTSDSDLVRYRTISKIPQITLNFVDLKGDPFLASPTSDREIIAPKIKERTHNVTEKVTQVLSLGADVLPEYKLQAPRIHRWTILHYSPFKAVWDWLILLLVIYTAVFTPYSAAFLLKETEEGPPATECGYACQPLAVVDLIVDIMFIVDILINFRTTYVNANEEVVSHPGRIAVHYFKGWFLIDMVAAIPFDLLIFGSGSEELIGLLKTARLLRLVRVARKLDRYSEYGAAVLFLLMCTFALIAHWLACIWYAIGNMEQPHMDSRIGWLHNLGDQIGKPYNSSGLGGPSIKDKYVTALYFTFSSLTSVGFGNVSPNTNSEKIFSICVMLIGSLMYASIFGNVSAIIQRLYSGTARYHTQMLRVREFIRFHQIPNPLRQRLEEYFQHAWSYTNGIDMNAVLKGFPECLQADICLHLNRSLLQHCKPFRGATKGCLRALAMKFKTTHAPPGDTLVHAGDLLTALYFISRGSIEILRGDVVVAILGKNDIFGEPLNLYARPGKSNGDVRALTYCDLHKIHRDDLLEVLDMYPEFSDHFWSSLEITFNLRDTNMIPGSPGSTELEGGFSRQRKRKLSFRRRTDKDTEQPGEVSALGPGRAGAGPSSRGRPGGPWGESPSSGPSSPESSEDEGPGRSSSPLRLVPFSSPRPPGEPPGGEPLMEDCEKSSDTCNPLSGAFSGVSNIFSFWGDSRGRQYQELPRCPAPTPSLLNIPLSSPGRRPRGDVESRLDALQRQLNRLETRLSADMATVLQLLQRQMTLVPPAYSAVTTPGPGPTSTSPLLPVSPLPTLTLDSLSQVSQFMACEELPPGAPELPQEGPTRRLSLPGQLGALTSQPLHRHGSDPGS

5-hydroxytryptamine receptor 2A, sequence (P28223 whole entry): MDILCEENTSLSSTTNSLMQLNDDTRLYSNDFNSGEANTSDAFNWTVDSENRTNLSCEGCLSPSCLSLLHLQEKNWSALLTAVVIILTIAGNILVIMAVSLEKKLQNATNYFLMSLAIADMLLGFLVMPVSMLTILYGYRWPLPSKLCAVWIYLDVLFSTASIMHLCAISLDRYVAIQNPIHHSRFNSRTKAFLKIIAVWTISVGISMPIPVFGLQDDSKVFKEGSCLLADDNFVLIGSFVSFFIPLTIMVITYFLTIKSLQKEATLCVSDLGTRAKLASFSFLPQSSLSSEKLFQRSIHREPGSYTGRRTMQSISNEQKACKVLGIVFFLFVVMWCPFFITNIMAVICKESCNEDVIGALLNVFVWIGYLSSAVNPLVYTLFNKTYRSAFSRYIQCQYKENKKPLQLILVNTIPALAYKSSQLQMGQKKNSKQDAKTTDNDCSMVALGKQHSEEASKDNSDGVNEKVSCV

Work on O=C(NCc1ccc(OCC(O)CN2CCN(c3noc4cc(F)ccc34)CC2)cc1)N(Cc1cc(F)c(F)cc1F)C1CCNCC1 (configuration not stated) yielded an IC50 [1] of 49.5 nM and an inhibition at 10 µM (hERG (KCNH2)) of 72.9%.
